Laboratory results published in PMC8115619, “Generation of a chemical genetic model for JAK3” (Scientific Reports, 2021).

Tests used:
[1] = test system: IL-2 induced STAT5 phosphorylation in wild type CD8 T cells; assay: IL-2 induced STAT5 phosphorylation in wild type T cells; assay type: cell-based, mouse; settings: inhibitor 30 min, 10 ng/ml IL-2 30 min
Protocol: (§1) (A) Single cell suspensions were prepared from the spleens of wild type mice. […] Cells were then stimulated with 10 ng/ml IL-4 for 30 min and the levels of phosphorylated STAT6 determined by immunoblotting. (B) As (A) except cells were stimulated with 10 ng/ml IL-2 and the levels of phosphorylated STAT5 determined. (C) CD8 T cells were expanded from the lymph nodes of wild type and JAK3 Cys905Ser knockin mice. Cells were rested in the absence of IL-2 for 60 min then incubated with the indicated concentrations of PF-06651600 for a further 30 min before stimulation with 10 ng/ml of IL-2 for 30 min. The levels of phosphorylated STAT5 and total ERK1/2 were then determined.
Lymph Nodes were harvested from the mice and a single cell suspension in PBS made by passing the tissue through a […] strainer. The cells were counted and seeded at density of 10^6 cells/ml in RPMI supplemented with10% heat inactivated FBS (Labtech), 2 mM L-glutamine, 100 U/ml penicillin G, 100 μg/ml streptomycin, 0.25 μg/ml amphotericin and 50 μM β-mercaptoethanol and stimulated with 1 μg/ml anti-CD28 (cat:16-0281-82; clone:37.51 Thermo Fisher), 1 μg/ml anti CD3e (cat:16-0031-85, Clone:145-2C11 Thermo Fisher), 20 ng/ml of IL-2 and 1 ng/ml of IL-12. The cells were cultured for 36 h and then the cell suspension was diluted 5 times with RPMI media containing 20 ng/ml of IL-2. […]

[2] = test system: JAK1; settings: ATP 40 μM; read-out: In vitro IC50 JAK1; cited from earlier work
[3] = test system: JAK2; settings: ATP 4 μM; read-out: In vitro IC50 JAK2; cited from earlier work
[4] = test system: IL-4 induced STAT6 phosphorylation in spleenocytes; assay: IL-4 induced STAT6 phosphorylation in spleenocytes; assay type: cell-based, mouse; settings: wild type mice, inhibitor 1 h, 10 ng/ml IL-4 30 min
Protocol: as §1
Cells were lysed directly into SDS sample buffer and aliquots run on 10% polyacrylamide gels using standard methods. Proteins were transferred onto nitrocellulose membranes, and specific proteins were detected by immunoblotting. […] Bands were detected using Clarity ECL reagents from BioRad and imaged on a Licor Odyssey Fc system. Quantification was carried out using Licor Image Studio software. After correction for the ERK1/2 levels to account for loading differences, percentage inhibition was calculated relative to the IL-4 stimulated condition. IC50 values were calculated using the same methods as for the in vitro IC50 values.

[5] = test system: JAK3; settings: ATP 4 μM; read-out: In vitro IC50 JAK3; cited from earlier work
[6] = biological target: HIPK1 (Homo sapiens, UniProt Q86Z02); assay: Selectivity screen HIPK1; assay type: biochemical; settings: 1 µM inhibitor, mean
HIPK1, sequence (Q86Z02 whole entry): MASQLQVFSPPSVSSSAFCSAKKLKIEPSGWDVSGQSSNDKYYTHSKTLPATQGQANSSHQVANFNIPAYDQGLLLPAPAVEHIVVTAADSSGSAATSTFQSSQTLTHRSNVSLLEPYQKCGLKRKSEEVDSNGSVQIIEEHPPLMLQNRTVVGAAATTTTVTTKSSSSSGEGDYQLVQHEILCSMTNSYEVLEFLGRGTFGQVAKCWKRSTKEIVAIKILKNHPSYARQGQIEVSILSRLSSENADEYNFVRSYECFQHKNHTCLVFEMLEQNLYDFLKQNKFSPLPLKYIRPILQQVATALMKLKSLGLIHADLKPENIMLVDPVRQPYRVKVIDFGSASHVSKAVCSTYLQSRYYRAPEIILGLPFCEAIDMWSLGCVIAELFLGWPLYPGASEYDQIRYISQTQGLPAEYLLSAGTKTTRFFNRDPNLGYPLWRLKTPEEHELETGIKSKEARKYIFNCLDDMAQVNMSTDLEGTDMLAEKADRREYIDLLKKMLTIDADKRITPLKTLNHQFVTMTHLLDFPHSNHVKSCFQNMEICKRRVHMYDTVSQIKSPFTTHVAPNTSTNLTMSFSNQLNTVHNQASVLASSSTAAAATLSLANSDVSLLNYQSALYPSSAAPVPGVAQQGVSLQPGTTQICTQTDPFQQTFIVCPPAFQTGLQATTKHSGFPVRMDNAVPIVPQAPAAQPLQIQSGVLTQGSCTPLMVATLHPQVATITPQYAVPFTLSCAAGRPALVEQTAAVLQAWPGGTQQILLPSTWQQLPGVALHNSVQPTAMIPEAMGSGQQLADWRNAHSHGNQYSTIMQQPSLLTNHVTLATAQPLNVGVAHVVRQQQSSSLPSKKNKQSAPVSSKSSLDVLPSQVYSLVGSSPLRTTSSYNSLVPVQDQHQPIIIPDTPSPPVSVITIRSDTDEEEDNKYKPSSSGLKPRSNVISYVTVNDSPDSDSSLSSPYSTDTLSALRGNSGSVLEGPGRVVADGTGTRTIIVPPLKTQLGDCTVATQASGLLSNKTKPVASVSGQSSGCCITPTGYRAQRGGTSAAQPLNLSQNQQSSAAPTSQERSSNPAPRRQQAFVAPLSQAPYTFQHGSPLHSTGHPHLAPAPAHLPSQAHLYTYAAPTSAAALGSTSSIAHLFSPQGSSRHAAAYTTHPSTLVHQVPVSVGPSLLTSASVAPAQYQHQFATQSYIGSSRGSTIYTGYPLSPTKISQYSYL
Protocol: (§2) For the in vitro kinase assay, JAK3 (5–20 mU diluted in 50 mM Tris pH 7.5, 0.1 mM EGTA, 0.05% β-mercaptoethanol, 1 mg/ml BSA) was assayed against PDKtide ([…]) in a final volume of 25.5 µl containing 50 mM Tris pH 7.5, 0.1 mM EGTA, 0.05% β-mercaptoethanol, 100 µM substrate peptide, 10 mM magnesium acetate and 0.02 mM [33P-γ-ATP] (50–1000 cpm/pmole) and incubated for 30 min at room temperature. Assays were started by the addition of the ATP and stopped by addition of 5 µl of 0.5 M (3%) orthophosphoric acid and then harvested onto P81 Unifilter plates with a wash buffer of 50 mM orthophosphoric acid. To determine the Km for ATP, assays were run using 1, 5, 10, 20, 50, 100, 200, 400, 500 μM ATP and Km derived by non-linear regression fitting to the Michaelis–Menten equation v = Vmax[S]/(Km + [S]). IC50 values for inhibitors via non-linear regression using a parameter model: Y = Bottom + (Top–Bottom)/(1 + (IC50/X)^HillSlope). Non-linear regression was carried out in Prism (version 8). In vitro selectivity screen was carried out as described previously.

[7] = biological target: MPSK1 (Homo sapiens, UniProt O75716); assay: Selectivity screen MPSK1; assay type: biochemical; settings: 1 µM inhibitor, mean
MPSK1, sequence (O75716 whole entry): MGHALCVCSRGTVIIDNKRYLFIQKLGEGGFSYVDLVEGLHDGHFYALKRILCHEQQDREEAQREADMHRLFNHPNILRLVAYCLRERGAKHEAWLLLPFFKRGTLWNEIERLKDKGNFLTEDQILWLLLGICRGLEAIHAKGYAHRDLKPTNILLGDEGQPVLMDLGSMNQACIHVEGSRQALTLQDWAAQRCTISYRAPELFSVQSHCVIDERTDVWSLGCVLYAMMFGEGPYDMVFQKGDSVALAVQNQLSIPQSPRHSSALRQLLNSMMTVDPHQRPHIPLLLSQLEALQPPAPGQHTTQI
Protocol: as §2

[8] = biological target: TrkA (Homo sapiens, UniProt P04629); assay: Selectivity screen TrkA; assay type: biochemical; settings: 1 µM inhibitor, mean
TrkA, sequence (P04629 33-796): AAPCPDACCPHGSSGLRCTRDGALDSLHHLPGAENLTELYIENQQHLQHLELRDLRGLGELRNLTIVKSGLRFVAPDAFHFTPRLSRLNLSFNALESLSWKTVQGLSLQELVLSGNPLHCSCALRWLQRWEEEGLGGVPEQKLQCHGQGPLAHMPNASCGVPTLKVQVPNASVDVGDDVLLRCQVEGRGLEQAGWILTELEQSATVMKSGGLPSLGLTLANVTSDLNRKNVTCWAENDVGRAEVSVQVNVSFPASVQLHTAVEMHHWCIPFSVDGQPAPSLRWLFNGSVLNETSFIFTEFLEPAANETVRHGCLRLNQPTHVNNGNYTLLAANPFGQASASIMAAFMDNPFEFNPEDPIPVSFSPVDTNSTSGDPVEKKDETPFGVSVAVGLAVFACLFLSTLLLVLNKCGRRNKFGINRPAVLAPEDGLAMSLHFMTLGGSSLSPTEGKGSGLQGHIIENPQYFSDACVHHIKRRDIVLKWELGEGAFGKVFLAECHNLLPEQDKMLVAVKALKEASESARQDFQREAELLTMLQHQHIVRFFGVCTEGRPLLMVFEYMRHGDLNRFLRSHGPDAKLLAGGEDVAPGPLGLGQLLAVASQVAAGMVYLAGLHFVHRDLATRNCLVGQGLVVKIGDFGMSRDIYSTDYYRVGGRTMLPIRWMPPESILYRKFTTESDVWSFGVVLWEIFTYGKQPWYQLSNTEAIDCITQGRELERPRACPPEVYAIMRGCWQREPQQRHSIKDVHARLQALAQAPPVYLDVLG
Protocol: as §2

[9] = biological target: TBK1 (Homo sapiens, UniProt Q9UHD2); assay: Selectivity screen TBK1; assay type: biochemical; settings: 1 µM inhibitor, mean
TBK1, sequence (Q9UHD2 whole entry): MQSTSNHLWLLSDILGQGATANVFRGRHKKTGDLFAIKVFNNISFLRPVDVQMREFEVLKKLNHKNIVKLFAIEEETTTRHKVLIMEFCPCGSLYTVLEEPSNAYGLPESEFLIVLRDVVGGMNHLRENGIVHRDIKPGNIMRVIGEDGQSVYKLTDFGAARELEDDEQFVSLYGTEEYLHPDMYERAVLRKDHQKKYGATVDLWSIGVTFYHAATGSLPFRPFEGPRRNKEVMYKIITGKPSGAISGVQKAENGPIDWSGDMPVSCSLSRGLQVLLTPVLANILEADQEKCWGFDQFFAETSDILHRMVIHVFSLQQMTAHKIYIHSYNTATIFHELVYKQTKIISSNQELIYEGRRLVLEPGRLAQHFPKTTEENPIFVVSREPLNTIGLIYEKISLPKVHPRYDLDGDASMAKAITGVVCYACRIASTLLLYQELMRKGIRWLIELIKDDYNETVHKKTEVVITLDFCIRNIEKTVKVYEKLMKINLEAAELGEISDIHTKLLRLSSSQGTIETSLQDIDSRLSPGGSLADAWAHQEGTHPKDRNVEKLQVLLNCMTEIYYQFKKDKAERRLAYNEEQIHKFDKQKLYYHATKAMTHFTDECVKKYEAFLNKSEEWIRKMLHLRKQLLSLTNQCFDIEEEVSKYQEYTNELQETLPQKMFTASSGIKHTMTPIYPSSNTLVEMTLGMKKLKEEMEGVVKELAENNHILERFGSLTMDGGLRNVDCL
Protocol: as §2

[10] = biological target: MLK1 (Homo sapiens, UniProt P80192); assay: Selectivity screen MLK1; assay type: biochemical; settings: 1 µM inhibitor, mean
MLK1, sequence (P80192 whole entry): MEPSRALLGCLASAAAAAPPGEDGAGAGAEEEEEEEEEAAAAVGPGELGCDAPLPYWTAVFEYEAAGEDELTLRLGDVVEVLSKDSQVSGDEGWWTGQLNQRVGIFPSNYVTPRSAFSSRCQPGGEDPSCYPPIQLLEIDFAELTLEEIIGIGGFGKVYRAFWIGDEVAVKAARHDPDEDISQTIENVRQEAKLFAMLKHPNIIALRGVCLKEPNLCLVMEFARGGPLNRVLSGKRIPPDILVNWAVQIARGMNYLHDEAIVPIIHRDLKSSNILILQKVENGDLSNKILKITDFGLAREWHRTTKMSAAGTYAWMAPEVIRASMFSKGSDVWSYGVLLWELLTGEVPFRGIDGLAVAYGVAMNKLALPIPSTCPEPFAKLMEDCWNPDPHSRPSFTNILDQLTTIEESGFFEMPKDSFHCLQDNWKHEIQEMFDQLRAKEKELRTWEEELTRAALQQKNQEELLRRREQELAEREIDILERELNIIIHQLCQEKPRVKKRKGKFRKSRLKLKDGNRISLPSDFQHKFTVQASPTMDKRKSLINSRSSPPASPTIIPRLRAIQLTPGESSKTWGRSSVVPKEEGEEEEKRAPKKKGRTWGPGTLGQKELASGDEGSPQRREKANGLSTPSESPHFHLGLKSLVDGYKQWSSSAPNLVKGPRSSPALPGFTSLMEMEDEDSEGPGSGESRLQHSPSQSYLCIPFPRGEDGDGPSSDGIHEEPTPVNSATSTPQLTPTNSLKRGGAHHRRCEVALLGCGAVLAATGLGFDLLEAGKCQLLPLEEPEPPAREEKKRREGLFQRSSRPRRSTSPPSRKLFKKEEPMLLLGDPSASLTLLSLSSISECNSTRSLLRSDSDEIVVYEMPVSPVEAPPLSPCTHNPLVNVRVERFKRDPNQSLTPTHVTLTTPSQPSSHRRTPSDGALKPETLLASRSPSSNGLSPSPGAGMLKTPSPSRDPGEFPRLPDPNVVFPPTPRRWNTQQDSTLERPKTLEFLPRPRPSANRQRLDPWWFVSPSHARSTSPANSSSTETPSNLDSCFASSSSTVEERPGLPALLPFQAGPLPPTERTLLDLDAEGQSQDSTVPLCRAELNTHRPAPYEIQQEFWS
Protocol: as §2

[11] = biological target: MARK3 (Homo sapiens, UniProt P27448); assay: Selectivity screen MARK3; assay type: biochemical; settings: 1 µM inhibitor, mean
Protocol: as §2

[12] = biological target: RIPK2 (Homo sapiens, UniProt O43353); assay: Selectivity screen RIPK2; assay type: biochemical; settings: 1 µM inhibitor, mean
Protocol: as §2

[13] = biological target: TTK (Homo sapiens, UniProt P33981); assay: Selectivity screen TTK; assay type: biochemical; settings: 1 µM inhibitor, mean
Protocol: as §2

[14] = biological target: JNK2 (Homo sapiens, UniProt P45984); assay: Selectivity screen JNK2; assay type: biochemical; settings: 1 µM inhibitor, mean
JNK2, sequence (P45984 whole entry): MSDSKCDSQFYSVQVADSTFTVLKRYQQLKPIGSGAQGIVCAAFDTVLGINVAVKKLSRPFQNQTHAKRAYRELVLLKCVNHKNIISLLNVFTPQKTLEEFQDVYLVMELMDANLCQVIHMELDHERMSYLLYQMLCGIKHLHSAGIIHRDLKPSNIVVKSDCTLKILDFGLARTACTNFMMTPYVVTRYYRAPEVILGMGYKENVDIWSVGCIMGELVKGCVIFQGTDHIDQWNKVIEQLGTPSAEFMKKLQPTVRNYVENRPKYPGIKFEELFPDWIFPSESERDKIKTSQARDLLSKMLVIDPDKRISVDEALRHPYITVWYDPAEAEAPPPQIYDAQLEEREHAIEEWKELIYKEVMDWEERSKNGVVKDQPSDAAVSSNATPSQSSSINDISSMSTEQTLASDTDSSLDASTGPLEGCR
Protocol: as §2

[15] = biological target: PRAK (Homo sapiens, UniProt Q8IW41); assay: Selectivity screen PRAK; assay type: biochemical; settings: 1 µM inhibitor, mean
PRAK, sequence (Q8IW41 whole entry): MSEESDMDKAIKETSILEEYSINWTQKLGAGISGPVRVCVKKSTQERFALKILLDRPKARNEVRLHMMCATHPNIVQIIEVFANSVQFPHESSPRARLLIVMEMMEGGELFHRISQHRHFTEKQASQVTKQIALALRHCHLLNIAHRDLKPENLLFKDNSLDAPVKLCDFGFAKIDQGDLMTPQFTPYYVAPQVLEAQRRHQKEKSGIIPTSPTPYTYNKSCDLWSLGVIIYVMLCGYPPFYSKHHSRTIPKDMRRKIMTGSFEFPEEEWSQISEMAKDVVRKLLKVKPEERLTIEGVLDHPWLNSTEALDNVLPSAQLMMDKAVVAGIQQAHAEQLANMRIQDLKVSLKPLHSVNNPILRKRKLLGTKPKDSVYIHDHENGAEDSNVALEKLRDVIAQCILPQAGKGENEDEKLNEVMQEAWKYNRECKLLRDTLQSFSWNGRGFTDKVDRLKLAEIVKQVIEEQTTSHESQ
Protocol: as §2

[16] = test system: IL-10 induced STAT3 phosphorylation in BMDMs; set-up: method as in PMID 26258521; settings: cited from earlier work
[17] = test system: IFNβ induced STAT1 phosphorylation in BMDMs; set-up: method as in PMID 26258521; settings: cited from earlier work
[18] = test system: GM-CSF induced STAT5 phosphorylation in BMDMs; set-up: method as in PMID 26258521; settings: 5 μM; cited from earlier work
[19] = biological target: PKBa (Homo sapiens, UniProt P31749); assay: Selectivity screen PKBa; assay type: biochemical; settings: 1 µM inhibitor, mean; read-out: activity remaining in the presence of the inhibitor: PKBa
Protocol: as §2

SMILES	block of IL-4 induced STAT6 phosphorylation in spleenocytes [4]	activity remaining in the presence of the inhibitor: HIPK1 [6]	activity remaining in the presence of the inhibitor: MPSK1 [7]	activity remaining in the presence of the inhibitor: TrkA [8]	activity remaining in the presence of the inhibitor: TBK1 [9]	activity remaining in the presence of the inhibitor: MLK1 [10]	activity remaining in the presence of the inhibitor: MARK3 [11]	activity remaining in the presence of the inhibitor: RIPK2 [12]	activity remaining in the presence of the inhibitor: TTK [13]	activity remaining in the presence of the inhibitor: JNK2 [14]	activity remaining in the presence of the inhibitor: PRAK [15]	also measured
C=CC(=O)N1C[C@H](Nc2ncnc3[nH]ccc23)CC[C@@H]1C [PF-06651600, 1-((2S,5R)-5-((7H-Pyrrolo[2,3-d]pyrimidin-4-yl)amino)-2-methylpiperidin-1-yl)prop-2-en-1-one, reference compound]	able to block	–	–	–	–	–	–	–	–	–	–	block of IL-2 induced STAT5 phosphorylation in isolated wild type T cells [1]: able to block; IC50 [2]: > 10 µM; IC50 [3]: > 10 µM; IC50 [5]: […]
C=CC(=O)Nc1cccc(CNc2nc(Nc3ccc(N4CCN(C)CC4)cc3OC)ncc2Cl)c1 [TL6-144]	–	79	91	59	78	20	48	92	96	98	93	inhibition of IL-10 signaling in macrophages ([16]; 5 μM): does not inhibit; block of STAT phosphorylation by IL-10 ([16]; 10 μM as printed in discussion): did not block; inhibition of IFNβ signaling in macrophages ([17]; 5 μM): does not inhibit; block of STAT phosphorylation by IFNβ ([17]; 10 μM as printed in discussion): did not block; inhibition of GM-CSF signaling in macrophages [18]: does not inhibit
C=CC(=O)Nc1cccc(CNc2nc(Nc3ccc(N4CCOCC4)cc3)ncc2Cl)c1 [TL8-52]	able to block	96	98	23	11	3	21	71	49	95	113	remaining activity at 1 µM [19]: 100%
